Source: article PMC10165273, “Itch receptor MRGPRX4 interacts with the receptor activity–modifying proteins” (The Journal of Biological Chemistry, 2023)
Where “and” joins values, the source holds several entries; their conditions need not be identical. Identical values can stand only once. Like-named read-outs stand apart in the source and are kept apart here.

Target: T1, MRGPRX4 + RAMP2 (Homo sapiens, UniProt Q96LA9)
T1 construct: expressed in transfected cells; host or cells: HEK293T
Assay: IP1 accumulation, MRGPRX4 coexpressed with RAMP2
Assay type: cell-based
Parameters: key to response to agonist, X4:ramp2.I:2: % IP1: mock-transfected unstimulated = 0%, fully stimulated MRGPRX4 = 100%; key to IP1 Basal / response to agonist, X4:ramp2.I:0.25 / response to agonist, X4:ramp2.I:0.5 / response to agonist, X4:ramp2.I:1: % IP1; unstimulated mock = 0%, fully stimulated MRGPRX4 = 100%
Conditions: for Emax: read-out: IP1 Emax; for IP1 accumulation (normalized): MRGPRX4+RAMP2 1pg 1:1, Supplementary Figure 5e, 5g
Procedure: HEK293T cells were transfected with 1 pg/cell of MRGPRX4 DNA, and the amount of DNA was kept constant at 2 pg/cell with pcDNA3.1(+) empty vector, unless otherwise specified. Twenty four hours after transfection, IP1 assay was performed as previously described ([51]). When applicable, cells were treated with 1 μM YM254890 (YM) or different concentrations of U73122 for 1 h prior to addition of agonist or buffer. After incubation for 2 h, HTRF reagents and IP1 calibration standards were added and incubated for 2 h in the dark at room temperature. Time-resolved fluorescence signals were read on the BioTek Synergy NEO-TRF Hybrid multi-mode reader (BioTek Instruments). All data were carried out in three independent experiments with three technical replicate each.
For RAMP DNA titration assay, HEK293T cells were cotransfected with a constant amount of 1 pg/cell of FLAG-MRGPRX4-GFP10-1D4 to which a serial dilution of 1, 0.75, 0.5, 0.25, or 0 pg/cell of each HA-RAMP-OLLAS was added. For a homogenous transfection of MRGPRX4, a master mix of MRGPRX4 DNA was made prior to addition of the RAMP DNA. […]
Data reduction, standard calibration, and transformation of HTRF data were performed as previously described ([51]). Normalized IP1 values were calculated relative to the unstimulated mock-transfected cells (set to 0%) and fully stimulated MRGPRX4 (alone if applicable) (set to 100%).

[1] = MRGPRX4 + RAMP2 0.25 pg (Fig. S3), normalized per agonist
[2] = MRGPRX4 + RAMP2 0.5 pg (Fig. S3), normalized per agonist
[3] = MRGPRX4 + RAMP2 1 pg (Fig. S3), normalized per agonist
[4] = MRGPRX4 + RAMP2 2 pg (Fig. S3), normalized per agonist
[5] = Tet-On MRGPRX4:RAMP2 Ratio 1:0.5 (Fig. S5E)
[6] = Tet-On MRGPRX4:RAMP2 Ratio 1:0.75 (Fig. S5E)
[7] = Tet-On MRGPRX4:RAMP2 Ratio 1:1 (Fig. S5E)

T1 sequence (Q96LA9 whole entry): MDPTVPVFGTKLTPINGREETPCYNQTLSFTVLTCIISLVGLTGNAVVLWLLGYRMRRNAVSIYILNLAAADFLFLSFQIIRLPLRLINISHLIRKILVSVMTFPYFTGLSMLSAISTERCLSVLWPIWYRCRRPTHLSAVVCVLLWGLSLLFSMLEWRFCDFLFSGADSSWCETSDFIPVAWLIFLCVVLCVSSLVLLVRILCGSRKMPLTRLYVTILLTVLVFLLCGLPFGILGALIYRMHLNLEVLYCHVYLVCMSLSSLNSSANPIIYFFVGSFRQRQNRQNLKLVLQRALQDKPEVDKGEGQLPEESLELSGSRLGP

CC(C)[C@H]1CC[C@H](C(=O)N[C@H](Cc2ccccc2)C(=O)O)CC1 [Nateglinide]
EC50 (Figure 4a top, DNA ratio MRGPRX4:RAMP2 1:0.25, individual replicates, read-out: potency (converted)): 9.57 µM and 9.23 µM (2×)
EC50 (Figure 4a top, DNA ratio MRGPRX4:RAMP2 1:0.5, individual replicates, read-out: potency (converted)): 15.1 µM and 11.3 µM and 13.1 µM
EC50 (Figure 4a top, DNA ratio MRGPRX4:RAMP2 1:0.75, individual replicates, read-out: potency (converted)): 15.4 µM and 13.9 µM and 10.4 µM
EC50 (Figure 4a top, DNA ratio MRGPRX4:RAMP2 1:1, individual replicates, read-out: potency (converted)): 39.9 µM and 19.4 µM and 24.3 µM
response to agonist, X4:ramp2.I:0.25 (Figure 4c-f, agonist 100µM, X4:ramp2 1:0.25, MRGPRX4 = 100): 71.8475 and 74.3589
response to agonist, X4:ramp2.I:0.5 (Figure 4c-f, agonist 100µM, X4:ramp2 1:0.5, MRGPRX4 = 100): 61.7207 and 60.1764
response to agonist, X4:ramp2.I:1 (Figure 4c-f, agonist 100µM, X4:ramp2 1:1, MRGPRX4 = 100): 42.7283 and 40.01
response to agonist, X4:ramp2.I:2 (Figure 4c-f, agonist 100µM, X4:ramp2 1:2, MRGPRX4 = 100): 16.754 and 20.2407
IP1 Basal [1]: 16.83
IP1 span (Emax minus basal) [1]: 84.5%
EC50 (MRGPRX4 + RAMP2 0.25 pg (Fig. S3), normalized per agonist, read-out: IP1 EC50): 11.8 µM
Emax [1]: 101%
IP1 Basal [2]: 13.85
IP1 span (Emax minus basal) [2]: 55.7%
Emax [2]: 69.5%
EC50 (MRGPRX4 + RAMP2 0.5 pg (Fig. S3), normalized per agonist, read-out: IP1 logEC50 (converted)): 6.68 µM
IP1 Basal [3]: 8.724
IP1 span (Emax minus basal) [3]: 37.8%
Emax [3]: 46.5%
EC50 (MRGPRX4 + RAMP2 1 pg (Fig. S3), normalized per agonist, read-out: IP1 logEC50 (converted)): 9.29 µM
IP1 Basal [4]: 3.623
IP1 span (Emax minus basal) [4]: 25.2%
EC50 (MRGPRX4 + RAMP2 2 pg (Fig. S3), normalized per agonist, read-out: IP1 EC50): 26.6 µM
Emax [4]: 28.8%
IP1 Basal [5]: 7.610
IP1 span (Emax minus basal) [5]: 68%
EC50 (Tet-On MRGPRX4:RAMP2 Ratio 1:0.5 (Fig. S5E), read-out: IP1 EC50): 8.76 µM
Emax [5]: 75.6%
IP1 Basal [6]: 4.862
IP1 span (Emax minus basal) [6]: 63.1%
EC50 (Tet-On MRGPRX4:RAMP2 Ratio 1:0.75 (Fig. S5E), read-out: IP1 EC50): 10.5 µM
Emax [6]: 67.9%
EC50 (Tet-On MRGPRX4:RAMP2 Ratio 1:0.75 (Fig. S5E), read-out: IP1 logEC50 (converted)): 10.5 µM
IP1 Basal [7]: 3.554
IP1 span (Emax minus basal) [7]: 52.2%
EC50 (Tet-On MRGPRX4:RAMP2 Ratio 1:1 (Fig. S5E), read-out: IP1 EC50): 16.7 µM
Emax [7]: 55.7%
IP1 accumulation (normalized) (log [nateglinide] (M) -4): 49.0479 and 42.2633 and 46.2108
IP1 accumulation (normalized) (log [nateglinide] (M) -4.69897): 35.8073 and 28.8485 and 29.8595
IP1 accumulation (normalized) (log [nateglinide] (M) -5.39794): 15.3369 and 12.9717 and 15.4367
IP1 accumulation (normalized) (log [nateglinide] (M) -6.09691): 5.582 and 4.886 and 4.986
IP1 accumulation (normalized) (log [nateglinide] (M) -6.79588): 3.625 and 3.074 and 3.358
IP1 accumulation (normalized) (log [nateglinide] (M) -7.49485): 3.035 and 3.588 and 4.695
